Molecular target: human activated kallikrein enzyme (Homo sapiens, UniProt P03952)
Test: Inhibition of human activated plasma kallikrein, fluorogenic peptide substrate (PFR-AMC), 500 pM enzyme format
Assay type: biochemical
Details: 500 pM activated kallikrein, 30 min preincubation, 10 min reaction, room temperature, read-out: Primary Dose Response Assay: Average EC50
Description: Compounds were evaluated for inhibition of the human activated kallikrein enzyme in two formats of an assay employing a fluorogenic peptide substrate. In one assay format, the concentrations of reagents were as follows: 20 mM Tris pH 7.5, 1 mM EDTA, 150 mM sodium chloride, 0.1% PEG-400, 0.1% Triton X-100, 500 pM activated kallikrein enzyme, […] Pro-Phe-Arg-7-amido-4-methylcoumarin (PFR-AMC) substrate. Prior to reaction initiation with substrate, enzyme and inhibitors were preincubated for 30 min at room temperature. After initiation with substrate, reactions were incubated for 10 min at room temperature and fluorescence emission at 460 nm from 380 nm excitation measured with a microplate reader. In another assay format, the concentrations of reagents were as follows: 20 mM Tris pH 7.5, 1 mM EDTA, 150 mM sodium chloride, 0.1% PEG-400, 0.1% Triton X-100, 5 pM activated kallikrein enzyme, 300 uM PFR-AMC substrate. Prior to reaction initiation with substrate, enzyme and inhibitors were preincubated for 30 min at room temperature. After initiation with substrate, reactions were incubated for 18 hr at room temperature and fluorescence emission at 460 nm from 380 nm excitation measured with a microplate reader.

human activated kallikrein enzyme, sequence (P03952 391-638 limits assumed): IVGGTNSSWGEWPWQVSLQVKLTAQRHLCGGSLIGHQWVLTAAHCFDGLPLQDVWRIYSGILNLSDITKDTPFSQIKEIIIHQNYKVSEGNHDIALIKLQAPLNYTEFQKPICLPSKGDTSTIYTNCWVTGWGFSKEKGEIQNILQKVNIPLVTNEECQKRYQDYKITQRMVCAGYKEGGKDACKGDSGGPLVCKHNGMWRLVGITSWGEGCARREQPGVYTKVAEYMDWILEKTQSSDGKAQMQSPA
human activated kallikrein enzyme, sequence (P03952 20-390 partner limits assumed): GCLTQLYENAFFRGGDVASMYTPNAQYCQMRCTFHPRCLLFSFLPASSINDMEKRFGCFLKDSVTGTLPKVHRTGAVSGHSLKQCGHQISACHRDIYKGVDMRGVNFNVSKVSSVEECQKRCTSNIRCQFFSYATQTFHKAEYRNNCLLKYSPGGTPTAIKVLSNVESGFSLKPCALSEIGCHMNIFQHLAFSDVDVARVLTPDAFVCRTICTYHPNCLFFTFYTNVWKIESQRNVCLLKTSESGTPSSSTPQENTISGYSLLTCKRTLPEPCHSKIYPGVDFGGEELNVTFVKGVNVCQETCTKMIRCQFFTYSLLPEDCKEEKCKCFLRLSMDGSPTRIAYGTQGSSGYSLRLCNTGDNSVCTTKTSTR

| EC50 [nM] | SMILES |
| --- | --- |
| 2.5 to 25 | Cc1ccnc([C@H]2C[C@@H]2C(=O)Nc2cc(NCc3ccc(N4CC5CC5C4)nc3)ncn2)n1 (relative stereo) [Example 79, rac-(1S*,2S*)—N-(6-(((6-(3-azabicyclo[3.1.0]hexan-3-yl)pyridin-3-yl)methyl)amino)pyrimidin-4-yl)-2-(4-methylpyrimidin-2-yl)cyclopropane-1-carboxamide] |
| > 500 | Cc1ccnc([C@@H]2C[C@H]2C(=O)Nc2cc(N3C[C@@H](O)C[C@@H]3c3cn4cc(C5CC5)cnc4n3)ncn2)c1 (single isomer, unassigned) [Example 74, (1S*,2S*)—N-(6-((2R,4S)-2-(6-cyclopropylimidazo[1,2-a]pyrimidin-2-yl)-4-hydroxypyrrolidin-1-yl)pyrimidin-4-yl)-2-(4-methylpyridin-2-yl)cyclopropane-1-carboxamide] |
| 2.5 to 25 | O=C(O)CCc1cc(C2CC2)cc2cc(CNc3cc(NC(=O)[C@H]4C[C@@H]4c4cccc(Cl)c4)ncn3)nn12 [Example 48, 3-(2-(((6-((1S,2S)-2-(3-chlorophenyl)cyclopropane-1-carboxamido)pyrimidin-4-yl)amino)methyl)-5-cyclopropylpyrazolo[1,5-a]pyridin-7-yl)propanoic acid] |
| > 500 | O=C(Nc1cc(NCc2cn3c(NC4CC4)nccc3n2)ncn1)[C@H]1C[C@@H]1c1cccc(Cl)c1 [Example 50, (1S,2S)-2-(3-chlorophenyl)-N-(6-(((5-(cyclopropylamino)imidazo[1,2-c]pyrimidin-2-yl)methyl)amino)pyrimidin-4-yl)cyclopropane-1-carboxamide] |
| 2.5 to 25 | CC(C)(O)CCc1cc(C2CC2)cc2cc(CNc3cc(NC(=O)[C@H]4C[C@@H]4c4cccc(Cl)c4)ncn3)nn12 [Example 51, (1S,2S)-2-(3-chlorophenyl)-N-(6-(((5-cyclopropyl-7-(3-hydroxy-3-methylbutyl)pyrazolo[1,5-a]pyridin-2-yl)methyl)amino)pyrimidin-4-yl)cyclopropane-1-carboxamide] |
| 2.5 to 25 | CC(C)(C#N)Cc1cc(C2CC2)cc2cc(CNc3cc(NC(=O)[C@H]4C[C@@H]4c4cccc(Cl)c4)ncn3)nn12 [Example 55, (1S,2S)-2-(3-chlorophenyl)-N-(6-(((7-(2-cyano-2-methylpropyl)-5-cyclopropylpyrazolo[1,5-a]pyridin-2-yl)methyl)amino)pyrimidin-4-yl)cyclopropane-1-carboxamide] |
| 2.5 to 25 | CN1CCN(c2cc(C3CC3)cn3nc(CNc4cc(NC(=O)[C@H]5C[C@@H]5c5cccc(Cl)c5)ncn4)nc23)CC1 [Example 58, (1S,2S)-2-(3-chlorophenyl)-N-(6-(((6-cyclopropyl-8-(4-methylpiperazin-1-yl)-[1,2,4]triazolo[1,5-a]pyridin-2-yl)methyl)amino)pyrimidin-4-yl)cyclopropane-1-carboxamide] |
| 2.5 to 25 | CN1CCN(c2cc(Cl)cc3cc(CNc4cc(NC(=O)[C@H]5C[C@@H]5c5cccc(Cl)c5)ncn4)cnc23)CC1 [Example 59, (1S,2S)—N-(6-(((6-chloro-8-(4-methylpiperazin-1-yl)quinolin-3-yl)methyl)amino)pyrimidin-4-yl)-2-(3-chlorophenyl)cyclopropane-1-carboxamide] |
| 2.5 to 25 | CN1C(=O)CN(c2cc(C3CC3)nn3cc(CNc4cc(NC(=O)[C@H]5C[C@@H]5c5cccc(Cl)c5)ncn4)nc23)C1=O [Example 62, (S,2S)-2-(3-chlorophenyl)-N-(6-(((6-cyclopropyl-8-(3-methyl-2,4-dioxoimidazolidin-1-yl)imidazo[1,2-b]pyridazin-2-yl)methyl)amino)pyrimidin-4-yl)cyclopropane-1-carboxamide] |
| > 500 | O=C(Nc1cc(N2C[C@@H](O)C[C@@H]2C(=O)Nc2ccc(C3CC3)cc2)ncn1)[C@H]1C[C@@H]1c1cccc(Cl)c1 [Example 64, (2R,4S)-1-(6-((1S,2S)-2-(3-chlorophenyl)cyclopropane-1-carboxamido)pyrimidin-4-yl)-N-(4-cyclopropylphenyl)-4-hydroxypyrrolidine-2-carboxamide] |
| > 500 | CN(C(=O)[C@H]1C[C@H](O)CN1c1cc(NC(=O)[C@H]2C[C@@H]2c2cccc(Cl)c2)ncn1)c1ccc(C2CC2)cc1 [Example 65, (2R,4S)-1-(6-((1S,2S)-2-(3-chlorophenyl)cyclopropane-1-carboxamido)pyrimidin-4-yl)-N-(4-cyclopropylphenyl)-4-hydroxy-N-methylpyrrolidine-2-carboxamide] |

Second part, the compound before the results:

| SMILES | EC50 [nM] |
| --- | --- |
| O=C(Nc1cc(NCc2ccc(Cn3ccccc3=O)cc2)cnn1)[C@H]1C[C@@H]1c1cccc(Cl)c1 (single isomer, unassigned) [Example 15] | 25 to 500 |
| O=C(Nc1cc(NCc2ccc(Cn3ccccc3=O)cc2)cnn1)[C@@H]1C[C@H]1c1cccc(Cl)c1 (single isomer, unassigned) [Example 16] | < 2.5 |
| Cc1ccnc([C@H]2C[C@@H]2C(=O)Nc2cc(N[C@@H](C)c3nc4c(N5CC(=O)N(C)C5=O)cc(C5CC5)cn4n3)ncn2)n1 (single isomer, unassigned; isomer 2) [Example 108] | 2.5 to 25 |
| O=C(Nc1cc(OCc2ccc(Cn3cccn3)cc2)cnn1)C1CC12C(=O)Nc1ccccc12 (centres unmarked) [Example 7, N-(5-((4-((1H-pyrazol-1-yl)methyl)benzyl)oxy)pyridazin-3-yl)-2′-oxospiro[cyclopropane-1,3′-indoline]-2-carboxamide] | > 500 |
| O=C(Nc1cc(NCc2nc3ccc(C4CC4)cn3n2)ncn1)[C@H]1C[C@@H]1c1cccc(Cl)c1 [Example 26, (1S,2S)-2-(3-chlorophenyl)-N-(6-(((6-cyclopropyl-[1,2,4]triazolo[1,5-a]pyridin-2-yl)methyl)amino)pyrimidin-4-yl)cyclopropane-1-carboxamide] | 25 to 500 |
| O=C(Nc1cc(NCc2nc3ccc(C4CC4)nn3n2)ncn1)[C@H]1C[C@@H]1c1cccc(Cl)c1 [Example 28, (1S,2S)-2-(3-chlorophenyl)-N-(6-(((6-cyclopropyl-[1,2,4]triazolo[1,5-b]pyridazin-2-yl)methyl)amino)pyrimidin-4-yl)cyclopropane-1-carboxamide] | > 500 |
| O=C(Nc1cc(NCc2nc3ncc(C4CC4)cn3n2)ncn1)[C@H]1C[C@@H]1c1cccc(Cl)c1 [Example 32, (1S,2S)-2-(3-chlorophenyl)-N-(6-(((6-cyclopropyl-[1,2,4]triazolo[1,5-a]pyrimidin-2-yl)methyl)amino)pyrimidin-4-yl)cyclopropane-1-carboxamide] | 2.5 to 25 |
| O=C(Nc1cc(NCc2ccc3ncc(C4CC4)cc3c2)ccn1)[C@H]1C[C@@H]1c1cccc(Cl)c1 [Example 33, (1S,2S)-2-(3-chlorophenyl)-N-(4-(((3-cyclopropylquinolin-6-yl)methyl)amino)pyridin-2-yl)cyclopropane-1-carboxamide] | 2.5 to 25 |
| O=C(Nc1cc(NCc2cnc3ccc(C4CC4)cc3c2)ccn1)[C@H]1C[C@@H]1c1cccc(Cl)c1 [Example 34, (1S,2S)-2-(3-chlorophenyl)-N-(4-(((6-cyclopropylquinolin-3-yl)methyl)amino)pyridin-2-yl)cyclopropane-1-carboxamide] | 2.5 to 25 |
| O=C(Nc1cc(NCc2cn3c(=O)n(C4CC4)ccc3n2)ccn1)[C@H]1C[C@@H]1c1cccc(Cl)c1 [Example 36, (1S,2S)-2-(3-chlorophenyl)-N-(4-(((6-cyclopropyl-5-oxo-5,6-dihydroimidazo[1,2-c]pyrimidin-2-yl)methyl)amino)pyridin-2-yl)cyclopropane-1-carboxamide] | 2.5 to 25 |
| CC(C)Oc1nccc2nc(CNc3cc(NC(=O)[C@H]4C[C@@H]4c4cccc(Cl)c4)ncn3)cn12 [Example 37, (1S,2S)-2-(3-chlorophenyl)-N-(6-(((5-isopropoxyimidazo[1,2-c]pyrimidin-2-yl)methyl)amino)pyrimidin-4-yl)cyclopropane-1-carboxamide] | > 500 |
| CC(C)n1ccc2nc(CNc3cc(NC(=O)[C@H]4C[C@@H]4c4cccc(Cl)c4)ncn3)cn2c1=O [Example 38, (1S,2S)-2-(3-chlorophenyl)-N-(6-(((6-isopropyl-5-oxo-5,6-dihydroimidazo[1,2-c]pyrimidin-2-yl)methyl)amino)pyrimidin-4-yl)cyclopropane-1-carboxamide] | 25 to 500 |
| O=C(Nc1cc(NCc2nc3c(N4CCOC4=O)cc(C4CC4)cn3n2)ncn1)[C@H]1C[C@@H]1c1cccc(Cl)c1 [Example 43, (1S,2S)-2-(3-chlorophenyl)-N-(6-(((6-cyclopropyl-8-(2-oxooxazolidin-3-yl)-[1,2,4]triazolo[1,5-a]pyridin-2-yl)methyl)amino)pyrimidin-4-yl)cyclopropane-1-carboxamide] | 2.5 to 25 |
| O=C(Nc1cc(NCc2cn3nc(C4CC4)cc(N4CCOC4=O)c3n2)ncn1)[C@H]1C[C@@H]1c1cccc(Cl)c1 [Example 44, (1S,2S)-2-(3-chlorophenyl)-N-(6-(((6-cyclopropyl-8-(2-oxooxazolidin-3-yl)imidazo[1,2-b]pyridazin-2-yl)methyl)amino)pyrimidin-4-yl)cyclopropane-1-carboxamide] | 2.5 to 25 |
| CCOC(=O)CCc1cc(C2CC2)cc2cc(CNc3cc(NC(=O)[C@H]4C[C@@H]4c4cccc(Cl)c4)ncn3)nn12 [Example 47, ethyl 3-(2-(((6-((1S,2S)-2-(3-chlorophenyl)cyclopropane-1-carboxamido)pyrimidin-4-yl)amino)methyl)-5-cyclopropylpyrazolo[1,5-a]pyridin-7-yl)propanoate] | 2.5 to 25 |
